Read-outs that look alike come from different tables or passages of the source.
Assays:
Kv11.1 (hERG) = Kv11.1 (hERG) (Homo sapiens (Human), UniProt Q12809); assay: Kv11.1 (hERG) ion channel activity (patch clamp assay), HEK293 cells transfected with hERG gene
Method: C) Kv11.1 (hERG) Ion Channel Activity (Patch Clamp Assay)
The patch-clamp measurement was carried out at room temperature in whole-cell configuration on human embryonic kidney cells (HEK293) which have been transfected in a stable manner with the hERG gene.
The whole-cell configurations were carried out using an automated patch clamp device (Patchliner™, Nanion Technologies, Munich). […] The glass chip has a hole of defined size to which the cell is transferred into the Gigaseal by application of a reduced pressure and brought into the whole-cell configuration. Buffer, cell suspension and test substances were added to microchannels of the chip using a Teflon-coated pipette. The cells were clamped to a holding potential of −80 mV. For measurement of substance-promoted inhibition of the Kv11.1 channel, the following voltage protocol was applied at 10-second intervals: 51 ms/−80 mV, 500 ms/+40 mV, 500 ms/−40 mV, 200 ms/−80 mV. The leakage current is subtracted by means of the P4 method. The cells were resuspended in extracellular buffer (EC) and applied to the chip. After the cell had been collected, the seal was improved by addition of a seal enhancer buffer. As soon as the whole-cell configuration had been reached, the seal enhancer buffer was washed out and replaced by extracellular buffer. The measurement started in EC for 1.5 min. DMSO (vehicle control, 0.1% of DMSO) was then applied, and the control current was recorded for 3 min. The test substance was subsequently added twice in the same concentration, and the potassium current was measured for 3.5 min in each case.
The reference substance used was the Kv11.1 (hERG) ion channel blocker quinidine. The effects of test substances and quinidine were standardised to the associated vehicle control. The effect on the Kv11.1 (hERG) channel activity was assessed from the potassium current at −40 mV. For the calculation, the current was evaluated for the respective final trace.
During the measurement, an aliquot of the test substance was taken for concentration determination. The sample was measured immediately by HPLC, and the final concentration was determined from a calibration curve.

DNA-PK = DNA-PK (Homo sapiens (Human), UniProt P78527); assay: DNA-PK assay (biochemical), flashplate 33P-ATP kinase assay
Summary of the method: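 Reactions ran in streptavidin-coated flashplates and were halted by 200 mM EDTA, with a further 30 min at room temperature before saline washing.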

[1] = target: DNA-PK phosphorylation at serine 2056 (Homo sapiens (Human), UniProt P78527); assay: DNA-PK phosphorylation at serine 2056 (cellular), bleomycin-treated HCT116 cells, ELISA; assay type: cell-based; conditions: read-out: IC50 pDNA-PK
Summary of the method: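 HCT116 cells grown overnight were co-treated with 10 μM bleomycin and test compound for 6 h at 37 °C. Phospho-DNA-PK was quantified by chemiluminescent ELISA and normalised to total DNA-PKcs signal, with DMSO control as blank.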

[2] = Ki [Kv1.11 hERG], hERG patch clamp assay (cells without asterisk)
[3] = cellular DNA-PK phosphorylation at serine 2056, HCT116
[4] = read-out: Ki [Kv1.11 hERG], hERG patch clamp assay (cells without asterisk)
[5] = read-out: Ki [Kv1.11 hERG], patch clamp, HEK293 transfected with hERG gene
[6] = cellular, HCT116 cells, 10 μM bleomycin, six hours
[7] = Ki [Kv1.11 hERG], patch clamp, HEK293 transfected with hERG gene

Kv11.1 (hERG), sequence (Q12809 whole entry): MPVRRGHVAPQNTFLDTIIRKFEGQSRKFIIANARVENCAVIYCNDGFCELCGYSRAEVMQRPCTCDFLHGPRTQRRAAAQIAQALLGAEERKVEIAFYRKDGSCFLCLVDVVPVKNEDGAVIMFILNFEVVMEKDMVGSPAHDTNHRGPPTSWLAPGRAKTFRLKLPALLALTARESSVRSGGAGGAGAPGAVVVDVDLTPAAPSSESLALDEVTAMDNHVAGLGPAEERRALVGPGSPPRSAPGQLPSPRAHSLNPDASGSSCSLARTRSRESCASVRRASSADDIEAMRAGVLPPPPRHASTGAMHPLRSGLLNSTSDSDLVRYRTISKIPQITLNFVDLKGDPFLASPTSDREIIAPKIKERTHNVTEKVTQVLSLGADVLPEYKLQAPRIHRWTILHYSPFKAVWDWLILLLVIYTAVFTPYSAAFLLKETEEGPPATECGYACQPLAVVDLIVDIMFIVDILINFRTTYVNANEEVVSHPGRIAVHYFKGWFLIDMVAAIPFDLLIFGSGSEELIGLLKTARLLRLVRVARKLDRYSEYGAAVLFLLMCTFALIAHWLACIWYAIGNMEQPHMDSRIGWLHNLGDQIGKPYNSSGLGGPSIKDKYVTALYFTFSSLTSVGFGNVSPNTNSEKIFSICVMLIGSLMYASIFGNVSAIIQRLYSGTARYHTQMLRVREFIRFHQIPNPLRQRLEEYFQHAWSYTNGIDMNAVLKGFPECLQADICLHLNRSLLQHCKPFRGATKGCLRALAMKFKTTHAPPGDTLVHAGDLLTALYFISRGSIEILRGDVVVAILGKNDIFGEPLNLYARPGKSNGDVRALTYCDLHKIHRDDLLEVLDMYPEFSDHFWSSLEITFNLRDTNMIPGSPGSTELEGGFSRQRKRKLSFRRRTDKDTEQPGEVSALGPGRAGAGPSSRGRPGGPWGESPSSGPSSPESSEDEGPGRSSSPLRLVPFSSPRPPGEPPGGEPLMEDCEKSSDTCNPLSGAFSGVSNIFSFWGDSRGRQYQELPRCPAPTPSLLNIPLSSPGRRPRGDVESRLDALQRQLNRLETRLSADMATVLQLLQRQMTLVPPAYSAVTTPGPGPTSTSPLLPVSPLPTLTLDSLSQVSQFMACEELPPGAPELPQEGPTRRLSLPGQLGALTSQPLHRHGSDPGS

Row | IC50 (DNA-PK; biochemical DNA-PK assay) | IC50 [1, 3] | SMILES | Ki (Kv11.1 (hERG); [2]) | Ki (Kv11.1 (hERG); [4]) | further results
1 | 0.003 to 0.007 µM | < 0.5 µM | OC(c1cccnn1)c1cc(-c2ncnc3cc(N4CCOCC4)ccc23)ccc1Cl (stereo not drawn) [Example 479, (2-Chloro-5-(7-morpholin-4-yl-quinazolin-4-yl)-phenyl]pyridazin-3-yl-methanol] | 15 to 25 µM | – | –
2 | < 0.003 µM | 0.5 to 5 µM | Cc1cc(C(O)c2ccc(F)c(-c3ncnc4cc(N5CCOCC5)ccc34)c2)n(C)c(=O)c1 (stereo not drawn) [Example 340, 6-{[4-Fluoro-3-(7-morpholin-4-yl-quinazolin-4-yl)-phenyl]hydroxy-methyl}-1,4-dimethyl-1H-pyridin-2-one] | – | > 25 µM | –
3 | 0.007 to 0.03 µM | 5 to 10 µM | OC(c1cc(-c2ncnc3cc(N4CCOCC4)ccc23)ccc1Cl)c1ncncc1F (stereo not drawn) [Example 412, [2-Chloro-5-(7-morpholin-4-yl-quinazolin-4-yl)-phenyl]-(5-fluoro-pyrimidin-4-yl)-methanol] | 15 to 25 µM | – | –
4 | 0.007 to 0.03 µM | < 0.5 µM | OC(c1cc(-c2ncnc3cc(N4CCOCC4)ccc23)ccc1Cl)c1ncnc2ccoc12 (stereo not drawn) [Example 414, [2-Chloro-5-(7-morpholin-4-yl-quinazolin-4-yl)-phenyl]furo[3,2-d}-pyrimidin-4-yl-methanol] | 10 to 15 µM | – | –
5 | < 0.003 µM | 0.5 to 5 µM | OC(c1ccc(F)c(-c2ncnc3cc(N4CCOCC4)ccc23)c1)c1nnc2ccccn12 (stereo not drawn) [Example 399, [4-Fluoro-3-(7-morpholin-4-yl-quinazolin-4-yl)-phenyl]-[1,2,4]-triazolo[4,3-a]pyridin-3-ylmethanol] | – | > 25 µM | –
6 | 0.007 to 0.03 µM | 10 to 30 µM | COc1ccc(C(C(N)=O)c2ccc(F)c(-c3ncnc4cc(N5CCOCC5)ccc34)c2)nn1 (stereo not drawn) [Example 308, 2-[4-Fluoro-3-(7-morpholin-4-yl-quinazolin-4-yl)-phenyl]-2-(6-methoxypyridazin-3-yl)acetamide] | – | > 25 µM | –
7 | 0.003 to 0.007 µM | < 0.5 µM | COc1cnc(C(O)c2ccc(F)c(-c3ncnc4cc(N5CCOCC5)ccc34)c2)c(Br)c1 (stereo not drawn) [Example 473, (3-bromo-5-methoxy-pyridin-2-yl)-[4-fluoro-3-(7-morpholin-4-yl-quinazolin-4-yl)-phenyl]methanol] | 15 to 25 µM | – | –
8 | 0.007 to 0.03 µM | 5 to 10 µM | COc1nccnc1C(O)c1cc(-c2ncnc3cc(N4CCOCC4)cnc23)c(F)cc1Cl (stereo not drawn) [Example 247, [2-Chloro-4-fluoro-5-(7-morpholin-4-yl-pyrido[3,2-d}-pyrimidin-4-yl)-phenyl]-(3-methoxy-pyrazin-2-yl)-methanol] | 15 to 25 µM | – | –
9 | 0.003 to 0.007 µM | < 0.5 µM | OC(c1cc(-c2ncnc3cc(N4CCOCC4)ccc23)c(F)cc1Cl)c1nccn2ccnc12 (single isomer, unassigned) [Example 396] | – | > 25 µM | –
10 | 0.003 to 0.007 µM | 5 to 10 µM | OC(c1cc(-c2ncnc3cc(N4CCOCC4)ccc23)c(F)cc1F)c1cccc2nncn12 (stereo not drawn) [Example 350, [2,4-Difluoro-5-(7-morpholin-4-yl-quinazolin-4-yl)-phenyl]-[1,2,4]-triazolo[4,3-a]pyridin-5-ylmethanol] | – | > 25 µM | –
11 | 0.003 to 0.007 µM | 0.5 to 5 µM | OC(c1cc(-c2ncnc3cc(N4CCOCC4)ccc23)ccc1F)c1cccc2nncn12 (stereo not drawn) [Example 373, [2-Fluoro-5-(7-morpholin-4-yl-quinazolin-4-yl)-phenyl]-[1,2,4]-triazolo[4,3-a]pyridin-5-ylmethanol] | 15 to 25 µM | – | –
12 | 0.003 to 0.007 µM | 5 to 10 µM | COc1nnccc1C(C(N)=O)c1cc(-c2ncnc3cc(N4CCOCC4)ccc23)c(F)cc1Cl (stereo not drawn) [Example 307, 2-[2-Chloro-4-fluoro-5-(7-morpholin-4-yl-quinazolin-4-yl)-phenyl]-2-(3-methoxypyridazin-4-yl)acetamide] | – | > 25 µM | –
13 | < 0.003 µM | < 0.5 µM | OC(c1cc(-c2ncnc3cc(N4CCOCC4)ccc23)c(F)cc1F)c1ncnc2ccsc12 (stereo not drawn) [Example 439, [2,4-Difluoro-5-(7-morpholin-4-yl-quinazolin-4-yl)-phenyl]thieno[3,2-d}-pyrimidin-4-yl-methanol] | 10 to 15 µM | – | –
14 | 0.007 to 0.03 µM | 0.5 to 5 µM | Cc1cncnc1C(O)c1cc(-c2ncnc3cc(N4CCOCC4)ccc23)ccc1Cl (stereo not drawn) [Example 418, [2-Chloro-5-(7-morpholin-4-yl-quinazolin-4-yl)-phenyl]-(5-methyl-pyrimidin-4-yl)-methanol] | – | > 25 µM | –
15 | < 0.003 µM | 5 to 10 µM | OC(c1ccc(F)c(-c2ncnc3cc(N4CCOCC4)ccc23)c1)c1nnc2ccccn12 (stereo not drawn) [Example 344, [4-Fluoro-3-(7-morpholin-4-yl-quinazolin-4-yl)-phenyl]-[1,2,4]-triazolo[4,3-a]pyridin-3-ylmethanol] | – | > 25 µM | –
16 | 0.007 to 0.03 µM | 5 to 10 µM | NC(=O)C(c1ccc(F)c(-c2ncnc3cc(N4CCOCC4)ccc23)c1)c1ncccc1Cl (stereo not drawn) [Example 313, 2-(3-Chloro-pyridin-2-yl)-2-[4-fluoro-3-(7-morpholin-4-yl-quinazolin-4-yl)-phenyl]acetamide] | 15 to 25 µM | – | –
17 | > 0.03 µM | 10 to 30 µM | O=C1CCCN1c1nccnc1C(O)c1ccc(F)c(-c2ncnc3cc(N4CCOCC4)ccc23)c1 (stereo not drawn) [Example 425, 1-(3-{[4-Fluoro-3-(7-morpholin-4-yl-quinazolin-4-yl)-phenyl]hydroxy-methyl}pyrazin-2-yl)-pyrrolidin-2-one] | – | > 25 µM | –

The remaining lines, values behind:

Row | SMILES | IC50 (DNA-PK; biochemical DNA-PK assay) | IC50 [1, 3] | Ki (Kv11.1 (hERG); [2]) | Ki (Kv11.1 (hERG); [4]) | further results
18 | COc1nccnc1C(O)c1cc(-c2ncnc3cc(N4CCOCC4)ccc23)ccc1Cl (stereo not drawn) [Example 410, [2-Chloro-5-(7-morpholin-4-yl-quinazolin-4-yl)-phenyl]-(3-methoxy-pyrazin-2-yl)-methanol] | < 0.003 µM | < 0.5 µM | – | < 10 µM | –
19 | Cc1nccnc1C(O)c1cc(-c2ncnc3cc(N4CCOCC4)ccc23)c(F)cc1F (stereo not drawn) [Example 86] | – | – | – | – | Ki (Kv11.1 (hERG); [5]): > 25 µM; IC50 (DNA-PK; enzymatic, 5 μM ATP): < 0.003 µM; IC50 [1, 6]: < 0.5 µM
20 | COc1cnc(C(O)c2ccc(F)c(-c3ncnc4cc(N5CCOCC5)ccc34)c2)nc1 (stereo not drawn) [Example 67, [4-Fluoro-3-(7-morpholin-4-yl-quinazolin-4-yl)phenyl]-(5-methoxypyrimidin-2-yl)methanol] | – | – | – | – | Ki (Kv11.1 (hERG); [5]): > 25 µM; IC50 (DNA-PK; enzymatic, 5 μM ATP): 0.007 to 0.03 µM; IC50 [1, 6]: 5 to 10 µM
21 | Cc1nccnc1C(O)c1ccc(F)c(-c2ncnc3cc(N4CCOCC4)cnc23)c1 (stereo not drawn) [Example 237, [4-Fluoro-3-(7-morpholin-4-ylpyrido[3,2-d]pyrimidin-4-yl)phenyl]-(3-methylpyrazin-2-yl)methanol] | < 0.003 µM | < 0.5 µM | 10 to 15 µM | – | –
22 | OC(c1cnccn1)c1cc(-c2ncnc3cc(N4CCOCC4)ccc23)c(F)cc1Cl (stereo not drawn) [Example 34, [2-Chloro-4-fluoro-5-(7-morpholin-4-yl-quinazolin-4-yl)phenyl]-pyrazin-2-ylmethanol] | – | – | – | – | Ki (Kv11.1 (hERG); [7]): 15 to 25 µM; IC50 (DNA-PK; enzymatic, 5 μM ATP): 0.007 to 0.03 µM; IC50 [1, 6]: 5 to 10 µM
23 | CN(C)CCOc1ccc(C(O)c2ccc(F)c(-c3ncnc4cc(N5CCOCC5)ccc34)c2)nn1 (stereo not drawn) [Example 133, [6-(2-Dimethyl-amino-ethoxy)-pyridazin-3-yl]-[4-fluoro-3-(7-morpholin-4-yl-quinazolin-4-yl)-phenyl]methanol] | – | – | – | – | Ki (Kv11.1 (hERG); [5]): > 25 µM; IC50 (DNA-PK; enzymatic, 5 μM ATP): 0.007 to 0.03 µM; IC50 [1, 6]: 5 to 10 µM
24 | Cc1cc(F)c(-c2ncnc3cc(N4CCOCC4)ccc23)cc1C(O)c1nccs1 (stereo not drawn) [Example 209, [4-Fluoro-2-methyl-5-(7-morpholin-4-yl-quinazolin-4-yl)-phenyl]thiazol-2-ylmethanol] | – | – | – | – | Ki (Kv11.1 (hERG); [5]): > 25 µM; IC50 (DNA-PK; enzymatic, 5 μM ATP): > 0.03 µM; IC50 [1, 6]: 10 to 30 µM
25 | Cn1nc(C(O)c2cc(-c3ncnc4cc(N5CCOCC5)ccc34)c(F)cc2Cl)ccc1=O (stereo not drawn) [Example 59, 6-{[2-Chloro-4-fluoro-5-(7-morpholin-4-yl-quinazolin-4-yl)phenyl]-hydroxymethyl}-2-methyl-2H-pyridazin-3-one] | – | – | – | – | Ki (Kv11.1 (hERG); [7]): 15 to 25 µM; IC50 (DNA-PK; enzymatic, 5 μM ATP): < 0.003 µM; IC50 [1, 6]: 0.5 to 5 µM
26 | COC(=O)c1ccc(C(O)c2cc(-c3ncnc4cc(N5CCOCC5)ccc34)c(F)cc2Cl)nn1 (stereo not drawn) [Example 58, 6-{[2-Chloro-4-fluoro-5-(7-morpholin-4-yl-quinazolin-4-yl)phenyl]-hydroxymethyl}-pyridazine-3-carboxylic acid methyl ester] | – | – | – | – | Ki (Kv11.1 (hERG); [5]): > 25 µM; IC50 (DNA-PK; enzymatic, 5 μM ATP): 0.003 to 0.007 µM; IC50 [1, 6]: 5 to 10 µM
27 | OC(c1cccnn1)c1cc(-c2ncnc3cc(N4CCOCC4)ccc23)c(F)cc1F (stereo not drawn) [Example 48, [2,4-Difluoro-5-(7-morpholin-4-yl-quinazolin-4-yl)phenyl]-pyridazin-3-ylmethanol] | – | – | – | – | Ki (Kv11.1 (hERG); [7]): 15 to 25 µM; IC50 (DNA-PK; enzymatic, 5 μM ATP): 0.003 to 0.007 µM; IC50 [1, 6]: 0.5 to 5 µM
28 | OC(c1ccccn1)c1cc(-c2ncnc3cc(N4CCOCC4)ccc23)c(F)cc1F (stereo not drawn) [Example 218, [2,4-Difluoro-5-(7-morpholin-4-yl-quinazolin-4-yl)-phenyl]pyridin-2-yl-methanol] | – | – | – | – | Ki (Kv11.1 (hERG); Ki [Kv1.11 hERG], Table 7): 15 to 25 µM; IC50 (DNA-PK; Table 7): 0.003 to 0.007 µM; IC50 ([1]; Table 7, HCT116 cells): < 0.5 µM
29 | CC(O)(c1ccc(F)c(-c2ncnc3cc(N4CCOCC4)ccc23)c1)c1nccs1 (stereo not drawn) [Example 163, 1-[4-Fluoro-3-(7-morpholin-4-yl-quinazolin-4-yl)-phenyl]-1-thiazol-2-ylethanol] | – | – | – | – | Ki (Kv11.1 (hERG); Ki [Kv1.11 hERG], Table 5): 10 to 15 µM; IC50 (DNA-PK; Table 5): 0.007 to 0.03 µM; IC50 ([1]; Table 5, HCT116 cells): 10 to 30 µM
